The record followed here is patent US20240417687A1, “THYMIC CELLS AND METHODS OF MAKING” (Thymmune Therapeutics, Inc., priority 2021, published 2024).

Format in all cases: cell-based, human
In one test the test system is iPSCs. The test can be described thus: Optimizing 3D differentiation of iPSCs to definitive endoderm (Experiments 21, 22, 23). The method, then: In this experiment, the effect of adding PI-103 to Experiment 21/22 Medium B was tested. The effect of transitioning to 2D culture at the AFE stage was also tested. Differentiation of iPSCs into DE requires proper timing for introducing small molecules and growth factors. On Day 1-2, Experiment 21/22 Media A comprising DMEM-F12 and factors/small molecules namely Activin A (100 ng/mL), CHIR99021 2 μM, ITS (1:1000), KSR (0.05%), Pen strep (100×), PI-103 (25 nM) and NEAA (100×) was added. On day 3-5, Experiment 21/22 Media B comprising DMEM-F12 and factors/small molecules namely Activin A (100 ng/mL), LDN193189 (200 nM), PI-103 (25 nM), Insulin-Transferrin-Selenium (ITS-G) (1:1000), KSR (0.05%), Pen strep (100×) and NEAA (100×) was added. In Experiment 22, PI-103 (25 nM) was excluded. The effect of transitioning from 3D to 2D culture at VPE stage was tested. The impact of CHIR99021 addition to Experiment 23 Medium B was tested. Differentiation of iPSCs into DE requires proper timing for introducing small molecules and growth factors. On day 1-2, cells were cultured in Experiment 23 Media A comprising DMEM-F12 and small molecules/factors namely Activin A (100 ng/mL), CHIR99021 2 μM, ITS (1:1000), KSR (0.05%), Pen strep (100×), PI-103 (25 nM), and NEAA (100×). On day 3-4, Experiment 23 Media B containing DMEM-F12 and small molecules/factors namely Activin A (100 ng/mL), CHIRR9901 (2 μM), LDN193189 (200 nM), PI-103 (25 nM), Insulin-Transferrin-Selenium (ITS-G) (1:1000), KSR (0.05%), Pen strep (100×), and NEAA (100×). On day 5, Experiment 23 Media B containing DMEM-F12 and small molecules/factors namely Activin A (100 ng/mL), LDN193189 (200 nM), PI-103 (25 nM), Insulin-Transferrin-Selenium (ITS-G) (1:1000), KSR (0.05%), Pen strep (100×), NEAA (100×) was added. Experiment 21 and Experiment 23 described in Example 11 were designed to identify optimal conditions for 3D differentiation to DE. […] Sox17/FoxA2 double positive were higher in Experiment 23, whereas there were more Sox17/FoxA2 negative cells in Experiment 21 and Experiment 22.

In another test the test system is TEP populations. The test can be described thus: Oct4 and Nanog expression in TEP populations treated with PluriSIn-1. On the procedure: On days 19-22, cells were cultured in TEC media. On day19, equal amount of freshly made TEC media (500 μl) was replaced gently without disturbing the aggregates. TEC media was prepared to include Basal Media: DMEM-F12, FGF10 (50 ng/ml), IL-22 (20 ng/ml), FGF7/KGF (50 ng/ml), RANKL/TRANCE (50 ng/ml), BMP4 (50 ng/ml), FGF8b (50 ng/ml), CHIRR99 (2 μM), Ascorbic Acid (10 μM), Insulin-Transferrin-Selenium (ITS-G) (1:1000), KSR (0.0025%), Pen strep (1:200), B27 (without VIT A) (1:200), Glutamax (1:100), BME (1:100), N2(1:100), NEAA (1:400), Glutamax (100×), and BME (100×). On day 20, equal amount of freshly prepared TEC media (500 ul) along with Plurisin #1(20 μM) was added (Groups-Untreated and Treated). On day21, equal amount of freshly made TEC media (500 ul) was replaced gently without disturbing the aggregates. On day22, the cells were treated with Accutase and were frozen using Hypothermosol-FRS Media. The cells were split into the following groups for experimentation. Group 37FT1 (8.85M Treated and 9.5M untreated groups) was thawed in 3D and maintained in TEC media (Y27-10 uM on day1) for 6 days. On Day 6, cells were treated with 20 μM Plurisin #1 (24 hours) and were transplanted on day7 into 4 animals. Group 37FT2 (8.85M per plate) was thawed in 3D and maintained in TEC media (Y27-10 uM on day1) for 6 days. […]

A further test has as its system TEPs. The test can be described thus: Extended culture of TEPs with TEP medium supplemented with growth factors (Experiments 29, 30). Particulars: TEP medium supplemented with FGF7, FGF10 and RANKL together, Experiment 29 and 30. The method, then: For this differentiation step, VPE cells were cultured in thymic cell media e.g. TEP media or TEC media. On days 13-18, media was replaced for Experiment 29 TEP media containing Basal Media: DMEM-F12, FGF10 (50 ng/ml), BMP4 (50 ng/ml), FGF8b (50 ng/ml), CHIRR99 (2 μM), Ascorbic Acid (10 μM), Insulin-Transferrin-Selenium (ITS-G) (1:1000), KSR (0.0025%), Pen strep (1:200), B27 (without VIT A) (1:200), Glutamax (1:100), BME (1:100), N2(1:100), and NEAA (1:400). On day 13, equal amount of freshly made TEP media (500 ul) was added gently without disturbing the aggregates. On day 14-18, 50% of supernatant was removed and freshly prepared TEP media (500 ul) was added per well. On days 19-22, media was replaced with TEC media containing Basal Media: DMEM-F12, FGF10 (50 ng/ml), FGF7/KGF (50 ng/ml), RANKL/TRANCE (50 ng/ml), BMP4 (50 ng/ml), FGF8b (50 ng/ml), CHIRR99 (2 μM), Ascorbic Acid (10 μM), Insulin-Transferrin-Selenium (ITS-G) (1:1000), KSR (0.0025%), Pen strep (1:200), B27 (without VIT A) (1:200), Glutamax (1:100), BME (1:100), N2(1:100), NEAA (1:400), Glutamax (100×), and BME (100×). On days 20-22, 50% of supernatant was removed and freshly prepared TEC media (500 ul) was added per well. On day 22, Experiment 29B was reseeded as single cells in suspension (3D) and on Geltrex coated plates (2D). Remaining cells were frozen. Frozen Experiment 29B were thawed in suspension and maintained in TEC media.
For this differentiation step, VPE cells were cultured in thymic cell media e.g. TEP media or TEC media. […]
In experiments 16 through 23, the expression of FOXN1 and other markers expression by Day5 of TEP differentiation. […] In Exp 29-TEPs, FOXN1 expression was detected at week 1 of TEP stage. When TEPs were reseeded into 2D culture, no FOXN1 expression was detected after 1 week but FOXN1 was detected by week 2 in culture. In Exp29B-TEP2-3D, where single cell TEP were resuspended into 3D-aggregate culture, FOXN1 expression was detected already by 1 week and became even higher by second week.

The test system of test [1] is Spheroids induced to differentiate from iPSC state to TEP. Kind of test: Effect of timing of BMP addition on developmental gene expression in spheroids differentiating from iPSC to TEP. Particulars: with or without BMP at early and late TEP stages. An excerpt:
Differentiation of DE cells to thymic cells can be promoted by adding factors known to be important for DE to thymic differentiation. An example is BMP which is known to be crucial for the development and maturation of thymic progenitor cells from the third pharyngeal pouch. The impact of the timing of addition of BMP was explored (FIG. 2). Spheroids were induced to differentiate from iPSC state to TEP and timing of addition of BMP was varied. At different stages (DE, AFE, VPE, early and late TEP) spheroids were collected and analyzed for biomarkers related to the different stages. We compared condition with or without BMP at early and late TEP stages.

For `Cc1c[nH]c(-c2cnc(NCCNc3ccc(C#N)cn3)nc2-c2ccc(Cl)cc2Cl)n1` [CHIRR99, CHIR99021], in the test with iPSCs (2 μM added to Experiment 23 Medium B, day 3-4), the differentiation entry is “enhance differentiation”. Besides, the “differentiation efficiency to DE” value with iPSCs (Experiment 23 with Wnt activator versus Experiment 21 and 22 without) is recorded as “increased differentiation efficiency to DE”.
For the molecule `O=C(NNc1ccccc1)c1ccncc1` [PluriSIn-1], the “Oct4 and Nanog expression” value in the test on TEP populations (one 24-hour pulse before freezing and one 24-hr pulse after thawing, compared to one pulse) is “lower Oct4 and Nanog expression”; with TEP populations (one dose alone, different iPSC cell line), “sufficient to reduce Oct4 and Nanog expression”.
Turning to `Oc1cccc(-c2nc(N3CCOCC3)c3oc4ncccc4c3n2)c1` [PI-103], in the test with iPSCs (PI-103 (25 nM) added to Experiment 21/22 Medium B, day 3-5, excluded in Experiment 22), the DE differentiation result is on record as “enhanced DE differentiation”.

B1: RANKL: growth factor important for late maturation of TEPs to TECs (protein, UniProt O14788 140-317, looked up)
Tumor necrosis factor ligand …: IRAEKAMVDGSWLDLAKRSKLEAQPFAHLTINATDIPSGSHKVSLSSWYHDRGWAKISNMTFSNGKLIVNQDGFYYLYANICFRHHETSGDLATEYLQLMVYVTKTSIKIPSSHTLMKGGSTKYWSGNSEFHFYSINVGGFFKLRSGEEISIEVSNPSLLDPDQDATYFGAFKVRDID
For B1, the “duration of TEP culture while maintaining the expression of FOXN1” value (shortened to “duration”) in the test on TEPs is “extended beyond 5 days and up to 2 weeks”.

B2: BMP: growth factor BMP4, crucial for development and maturation of thymic progenitor cells (protein, UniProt P12644 293-408, looked up)
Bone morphogenetic protein 4: SPKHHSQRARKKNKNCRRHSLYVDFSDVGWNDWIVAPPGYQAFYCHGDCPFPLADHLNSTNHAIVQTLVNSVNSSIPKACCVPTELSAISMLYLDEYDKVVLKNYQEMVVEGCGCR
modifications: Bone morphogenetic protein 4
notes: growth factor BMP4, crucial for development and maturation of thymic progenitor cells
In the case of B2, in test [1], the “PAX1 and PAX9 expression” value was “suppressed”; the “TBX1 and HOXA3 expression” value is reported as “upregulated”.

B3: FGF7: growth factor important for late maturation of TEPs to TECs (protein, UniProt P21781 32-194, looked up)
Fibroblast growth factor 7: CNDMTPEQMATNVNCSSPERHTRSYDYMEGGDIRVRRLFCRTQWYLRIDKRGKVKGTQEMKNNYNIMEIRTVAVGIVAIKGVESEFYLAMNKEGKLYAKKECNEDCNFKELILENHYNTYASAKWTHNGGEMFVALNQKGIPVRGKKTKKEQKTAHFLPMAIT
As for B3, the “duration” value with TEPs was “extended beyond 5 days and up to 2 weeks”.

B4: FGF10: growth factor important for late maturation of TEPs to TECs (protein, UniProt O15520 38-208, looked up)
Fibroblast growth factor 10: QALGQDMVSPEATNSSSSSFSSPSSAGRHVRSYNHLQGDVRWRKLFSFTKYFLKIEKNGKVSGTKKENCPYSILEITSVEIGVVAVKAINSNYYLAMNKKGKLYGSKEFNNDCKLKERIEENGYNTYASFNWQHNGRQMYVALNGKGAPRRGQKTRRKNTSAHFLPMVVHS
Turning to B4, the “duration” value in the test on TEPs is “extended beyond 5 days and up to 2 weeks”.
